The target in this test is Human TASK-1 channels (Homo sapiens (Human), UniProt O14649). The experiment in a line: Determination of the activity on the TASK-1 channel in Xenopus oocytes (two-microelectrode voltage clamp). The class given is cell-based. The following applies: for IC50: human TASK-1 expressed in Xenopus oocytes, room temperature, read-out: IC50 value for TASK-1 inhibition. The protocol: Determination of the activity on the TASK-1 channel in Xenopus oocytes
Human TASK-1 channels were expressed in Xenopus oocytes. For this purpose, oocytes were isolated from Xenopus laevis and defoliculated. Subsequently, TASK-1-encoding RNA synthesized in vitro was injected into the oocytes. After two days of TASK-1 protein expression, TASK-1 currents were measured by two-microelectrode voltage clamp. Data were acquired and analyzed using a TEC-10cx amplifier (NPI Electronic, Tamm, Germany) connected to an ITC-16 interface (Instrutech Corp., Long island, USA) and Pulse software (HEKA Elektronik, Lambrecht, Germany). Oocytes were clamped to −90 mV and TASK-1 mediated currents were measured during 500 ms voltage pulses to 40 mV. Oocytes were continuously superfused with ND96 buffer containing 98 mM sodium chloride, 2 mM potassium chloride, 1.8 mM calcium chloride, 1 mM magnesium chloride, 5 mM 4-(2-hydroxyethyl)-piperazine-1-ethanesulfonic acid (HEPES: pH adjusted to 7.4 with sodium hydroxide). All experiments were performed at room temperature. Test compounds were consecutively added to the bath solution at rising concentrations. Compound effects were calculated as the percentage inhibition of TASK-1 control current before compound addition. IC50 values were obtained by fitting the data to the general dose-response equation.

Sequence of Human TASK-1 channels (O14649 whole entry): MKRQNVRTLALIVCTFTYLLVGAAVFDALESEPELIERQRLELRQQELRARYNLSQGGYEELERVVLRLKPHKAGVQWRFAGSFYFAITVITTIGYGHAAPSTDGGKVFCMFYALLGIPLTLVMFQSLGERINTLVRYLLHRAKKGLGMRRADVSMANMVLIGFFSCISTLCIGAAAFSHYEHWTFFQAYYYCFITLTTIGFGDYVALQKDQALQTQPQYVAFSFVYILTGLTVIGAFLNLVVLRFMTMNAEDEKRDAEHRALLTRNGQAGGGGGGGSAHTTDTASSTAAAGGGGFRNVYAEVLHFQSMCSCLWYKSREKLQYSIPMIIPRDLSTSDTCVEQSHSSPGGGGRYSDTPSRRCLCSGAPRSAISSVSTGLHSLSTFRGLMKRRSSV

As for “5,6,7,8-Tetrahydro-indolizine-1,3-dicarboxylic acid 3-[(3,5-dimethyl- isoxazol-4-yl)-amide] 1-[((R)-1-phenyl-propyl)-amide] [16nd]”, the IC50 (as a rule, the concentration that gives 50% inhibition) came to 210 nM.

With `CC[C@@H](NC(=O)c1cc(C(=O)NC(C)c2cnccn2)n2c1COCC2)c1ccccc1` (single isomer, unassigned; diastereomer 1) [16if], the IC50 stood at 1100 nM. The same measure, in the same setting: next, `CCC(NC(=O)c1cc(C(=O)N[C@H](CC)c2ccccc2)c2n1CCOC2)c1cnc(OC)nc1` (single isomer, unassigned; diastereomer 2) [16hv]: 760 nM; `CC[C@@H](NC(=O)c1cc(C(=O)NC(C)c2cnccn2)c2n1CCOC2)c1ccccc1` (single isomer, unassigned; diastereomer 1) [16jw]: 2860 nM; “3,4-Dihydro-1H-pyrrolo[2,1-c][1,4]oxazine-6,8-dicarboxylic acid 8-[((R)- 1-phenyl-propyl)-amide] 6-{[(R)-1-(5-trifiuoromethyl-pyridin-3-yl)- propyl]-amide} [16hn]”: 690 nM.

As for `CCC(NC(=O)c1cc(C(=O)N2CCC[C@@H]2C)n2c1COCC2)c1ccc(S(F)(F)(F)(F)F)cc1` (some centres unmarked) [16bf], the concentration for half-maximal inhibition (IC50) amounted to 740 nM. On the same count and under the same terms, to `CC(NC(=O)c1cc(C(=O)N[C@@H](c2ccc(F)cc2)C(C)C)n2c1COCC2)c1cnccn1` (single isomer, unassigned; diastereomer 1) [16lq] belongs 700 nM; to `CCC(NC(=O)c1cc(C(=O)N2CCC[C@@H]2C)n2c1COCC2)c1ncc(C(F)(F)F)s1` (single isomer, unassigned; diastereomer 2) [16ce], 280 nM; to “3,4-Dihydro-1H-pyrrolo[2,1-c][1,4]oxazine-6,8-dicarboxylic acid 8-{[(R)- 1-(6-rnethoxy-pyridin-3-yl)-propy]-amide} 6-[((R)-1-phenyl-propyl)- amide] [16jo]”, 250 nM.

As for `CC[C@@H](NC(=O)c1cc(C(=O)N2CCC[C@@H]2C)n2c1COCC2)c1ccc2c(c1)OC(F)(F)O2` [16bz, 6-((S)-2-Methyl-pyrrolidine-1-carbonyl)-3,4-dihydro-1H-pyrrolo[2,1-c][1,4]oxazine-8-carboxylic acid [(R)-1-(2,2-difluoro-benzo[1,3]dioxol-5-yl)-propyl]-amide], the IC50 is 200 nM. As to `CC[C@@H](NC(=O)c1cc(C(=O)NCc2cncc(F)c2)n2c1CCCC2)c1ccccc1` [16nb, 5,6,7,8-Tetrahydro-indolizine-1,3-dicarboxylic acid 3-[(5-fluoro-pyridin-3-ylmethyl)-amide] 1-[((R)-1-phenyl-propyl)-amide]], the IC50 came to 460 nM.

`CC[C@H](NC(=O)c1cc(C(=O)N[C@H](C)c2ccc(F)cc2)n2c1COCC2)c1cnc(OC)cn1` [16dv, 3,4-Dihydro-1H-pyrrolo[2,1-c][1,4]oxazine-6,8-dicarboxylic acid 6-{[(R)-1-(4-fluoro-phenyl)-ethyl]-amide} 8-{[(S)-1-(5-methoxy-pyrazin-2-yl)-propyl]-amide}]: the IC50 was 190 nM. Still for that read-out and setting: to `CC[C@@H](NC(=O)c1cc(C(=O)NC(C)c2cnccn2)c2n1CCOC2)c1ccc(F)cc1F` (single isomer, unassigned; diastereomer 1) [16pl] belongs 430 nM. Take `CC[C@@H](NC(=O)c1cc(C(=O)NCc2ccc3cc[nH]c3c2)n2c1COCC2)c1ccccc1` [16je, 3,4-Dihydro-1H-pyrrolo[2,1-c][1,4]oxazine-6,8-dicarboxylic acid 6-[(1H-indol-6-ylmethyl)-amide] 8-[((R)-1-phenyl-propyl)-amide]]: the inhibition (commonly the relative decrease from the control value, in per cent) at 5 µM (compound concentration 5 μM) was found to be 91%.

Source of the values: US9884860B2, “Fused pyrroledicarboxamides and their use as pharmaceuticals” (SANOFI, priority 2012, dated 2018).
